Test results reported in patent publication US5399552A, “Antibiotic peptides bearing aminoalkylthioether moieties” (Merck & Co, Inc, priority 1991, dated 1995).

How the values were obtained:
C. parapsilosis MY 1010 = assay: Minimum fungicidal concentration (MFC), microbroth dilution assay in YNBD; format: cell-based, Candida parapsilosis; settings: 35° C. 24 hours, then SDA 24 hours at 28° C.
Experimental: (§1) The compounds of the present invention are active against many fungi and particularly against Candida species. The antifungal properties may be illustrated with the minimum fungicidal concentration (MFC) determination against certain Candida organisms in a microbroth dilution assay carried out in a Yeast Nitrogen Base (Difco) medium with 1% dextrose (YNBD).
(§2) In carrying out the assay, Compound A-Ia was solubilized in 10 percent dimethyl sulfoxide (DMSO) and diluted to 2560 μg/ml. The compound was then diluted to 256 μg/ml in YNBD.
(§3) The yeast cultures, maintained on Sabouraud dextrose agar were transferred to YN broth (Difco) and incubated overnight at 35° C. with shaking (250 rpm). After incubation, each culture was diluted in sterile water to yield a final concentration of 1-5×10^6 colony forming units (CFU)/ml.
(§4) 96-well microplates were inoculated using a MIC-2000 (Dynatech) which delivers […] per well yielding a final inoculum per well of 1.5-7.5×10^3 cells. The microplates were incubated at 35° C. for 24 hours. The minimum inhibitory concentrations (MICs) were recorded as the lowest concentrations of drug showing no visible growth.
(§5) After recording the MIC, the plates were shaken to resuspend the cells. […] The inoculated trays were incubated 24 hours at 28° C. and then read for minimum fungicidal concentration (MFC). […]

[1] = test system: C. pseudotropicalis MY 1100; assay: as above; format: cell-based, Candida pseudotropicalis; settings: 35° C. 24 hours, then SDA 24 hours at 28° C.
Experimental: as §1, §2, §3, §4, §5

C. tropicalis MY 1012 = assay: as above; format: cell-based, Candida tropicalis; settings: 35° C. 24 hours, then SDA 24 hours at 28° C.
Experimental: as §1, §2, §3, §4, §5

Pneumocystis carinii = Pneumocystis carinii pneumonia in immunosuppressed rats, lung cysts; format: in vivo, Sprague-Dawley rats; settings: sc twice daily for four days, compared with untreated or solvent controls
Experimental: The compounds of the present invention may also be useful for inhibiting or alleviating Pneumocystis carinii infections in immune compromised patients. […] Before drug treatment, two rats are sacrificed to confirm the presence of Pneumocystis carinii pneumonia (PCP). Five rats (weighing approximately 150 grams) are injected twice daily for four days subcutaneously (sc) with Compound A-Ia in 0.25 ml of vehicle (distilled water). A vehicle control is also carried out. All animals continue to receive dexasone in the drinking water and low protein diet during the treatment period. At the completion of the treatment, all animals are sacrificed, the lungs are removed and processed, and the extent of disease determined by microscopic examination of stained slides for the presence of cysts.

C. Albicans MY 1730 = assay: Minimum fungicidal concentration (MFC), microbroth dilution assay in YNBD; format: cell-based, Candida albicans; settings: 35° C. 24 hours, then SDA 24 hours at 28° C.
Experimental: as §1, §2, §3, §4
(§6) After recording the MIC, the plates were shaken to resuspend the cells. Thereafter, 1.5 μl samples from the wells in the 96-well microplate were transferred to a single well tray containing Sabouraud dextrose agar. The inoculated trays were incubated 24 hours at 28° C. and then read for minimum fungicidal concentration (MFC). MFC is defined as the lowest concentration of drug showing no growth or less than 4 colonies per spot.

C. Albicans MY 1028 = assay: as above; format: cell-based, Candida albicans; settings: 35° C. 24 hours, then SDA 24 hours at 28° C.
Experimental: as §1, §2, §3, §4, §6

C. Albicans MY 1055 = assay: as above; format: cell-based, Candida albicans; settings: 35° C. 24 hours, then SDA 24 hours at 28° C.
Experimental: as §1, §2, §3, §4, §6

Candida albicans MY 1055 = assay: In vivo effectiveness in mice infected I.V. with Candida albicans, kidney CFU; set-up: species or system female DBA/2 mice; settings: 0.4 mg/kg I.P. twice daily for four consecutive days; kidneys of DBA/2 mice after seven days
Experimental: Growth from an overnight SDA culture of Candida albicans MY 1055 was suspended in sterile saline and the cell concentration determined by hemacytometer count and the cell suspension adjusted to 3.75 x 10^5 cells/mi. Then 0.2 milliliter of this suspension was administered I.V. in the tail vein of mice so that the final inoculum was 7.5×10^4 cells/mouse.
The assay then was carried out by administering aqueous solutions of Compound A-Ia at various concentrations intraperitoneally (I.P.), twice daily (b.i.d.) for four consecutive days to 18 to 20 gram female DBA/2 mice, which previously had been infected with Candida albicans in the manner described above. Distilled water was administered I.P. to C. albicans challenged mice as controls. After seven days, the mice were sacrificed by carbon dioxide gas, paired kidneys were removed aseptically and placed in sterile polyethylene bags containing 5 milliters of sterile saline. The kidneys were homogenized in the bags, serially diluted in sterile saline and aliquots spread on the surface of SDA plates. The plates were incubated at 35° C. for 48 hours and yeast colonies were enumerated for determination of colony forming units (CFU) per gram of kidneys. Compound A-Ia gave 99 percent reduction of recoverable Candida CFUs at 0.4 mg/kg I.P. twice daily for four consecutive days.

## 1-[4-hydroxy-5-aminoethylthio-N^2 -(10,12-dimethyl-1-oxotetradecyl)ornithine]-5-(3-hydroxyglutamine)-6-(3-hydroxyproline)echinocandin B trifluoroacetate [Compound A-Ia]
C. parapsilosis MY 1010
  MFC: 0.25 µg/mL
[1]
  MFC: 0.25 µg/mL
C. tropicalis MY 1012
  MFC: 0.125 µg/mL
Pneumocystis carinii
  extent of disease: cysts in stained slides from the lungs: prevention of or reduction of cysts
C. Albicans MY 1730
  MFC: 0.125 µg/mL
C. Albicans MY 1028
  MFC: 0.5 µg/mL
C. Albicans MY 1055
  MFC: 0.5 µg/mL
Candida albicans MY 1055
  reduction of recoverable Candida CFUs: 99%
